Laboratory results as given in US8372967B2, “Compounds and methods for modulating expression of GCCR” (Isis Pharmaceuticals, Inc., priority 2006, dated 2013).
Strand notation (5' to 3'): a small letter for the sugar, then the base; units joined by * are phosphorothioate-linked, units joined directly phosphodiester-linked; [ ] holds rarer units or linkages, { } end groups; capitals alone tell only the bases. e = 2'-O-(2-methoxyethyl) (MOE); [5mC] = 5-methylcytosine; d = 2'-deoxy (DNA)

Tested on: SGLT2 mRNA
Test: SGLT2 mRNA in kidney of Balb/c mice, twenty 1-10-1 MOE gapmers, PPS 534 and PPS 553 (Table 74)
Format: in vivo, mouse
Details: i.p. 350 nmol/kg twice per week for two weeks
Protocol: Twenty 1-10-1 MOE gapmers that are complementary to human/monkey/mouse/rat SGLT2 were designed, synthesized and tested in vivo for suppression of SGLT2 mRNA levels in kidney. Data are averages from two experiments in which male 6-week old Balb/c mice were administered intraperitoneal injections of 350 nmol/kg of oligonucleotide, twice per week, over a period of two weeks (a total of four injections). Mice were sacrificed 48 hours following the last administration and evaluated for SGLT2 mRNA levels in kidney. SGLT2 mRNA levels were determined by quantitative real-time PCR analysis according to standard procedures, using two different PCR primer probe sets, primer probe set (PPS) 534 and PPS 553. SGLT2 mRNA levels were normalized to cyclophilin mRNA levels, which were also measured by quantitative real-time PCR.

[1] = primer probe set 534, normalized to cyclophilin
[2] = primer probe set 553, normalized to cyclophilin

Substance | % change in SGLT2 mRNA vs saline [1] [% Saline] | % change in SGLT2 mRNA vs saline [2] [% Saline]
379685 (antisense eT*dG*dA*d[5mC]*d[5mC]*dA*dG*d[5mC]*dA*dG*dG*eA) [compound 379685] | −10.3 | −20.5
379686 (antisense eA*d[5mC]*d[5mC]*dA*d[5mC]*dA*dA*dG*d[5mC]*d[5mC]*dA*eA) [compound 379686] | −71.9 | −75.1
379687 (antisense eG*dA*dT*dG*dT*dT*dG*d[5mC]*dT*dG*dG*e[5mC]) [compound 379687] | −47.1 | −52.1
379688 (antisense e[5mC]*d[5mC]*dA*dA*dG*d[5mC]*d[5mC]*dA*d[5mC]*dT*dT*eG) [compound 379688] | −62.6 | −70.4
379689 (antisense eA*dG*dA*dG*d[5mC]*dG*d[5mC]*dA*dT*dT*d[5mC]*e[5mC]) [compound 379689] | −17.5 | −30.4
379690 (antisense eA*d[5mC]*dA*dG*dG*dT*dA*dG*dA*dG*dG*e[5mC]) [compound 379690] | −18.9 | −22.5
379691 (antisense eA*dG*dA*dT*d[5mC]*dT*dT*dG*dG*dT*dG*eA) [compound 379691] | −35.0 | −48.6
379692 (antisense eT*dG*dT*dT*d[5mC]*d[5mC]*dA*dG*d[5mC]*d[5mC]*d[5mC]*eA) [compound 379692] | −88.1 | −88.5
379693 (antisense e[5mC]*dA*dT*dG*dG*dT*dG*dA*dT*dG*d[5mC]*e[5mC]) [compound 379693] | −51.6 | −59.9
379694 (antisense eG*dA*d[5mC]*dG*dA*dA*dG*dG*dT*d[5mC]*dT*eG) [compound 379694] | −42.1 | −54.4
